Tests used:
[1] = biological target: T1, S7.1R (Dj-S7.1R) (Dugesia japonica, UniProt O15969); test: GloSensor cAMP luminescence in transfected HEK293 cells, peak amplitude; format: cell-based
T1 sequence (O15969 1-478): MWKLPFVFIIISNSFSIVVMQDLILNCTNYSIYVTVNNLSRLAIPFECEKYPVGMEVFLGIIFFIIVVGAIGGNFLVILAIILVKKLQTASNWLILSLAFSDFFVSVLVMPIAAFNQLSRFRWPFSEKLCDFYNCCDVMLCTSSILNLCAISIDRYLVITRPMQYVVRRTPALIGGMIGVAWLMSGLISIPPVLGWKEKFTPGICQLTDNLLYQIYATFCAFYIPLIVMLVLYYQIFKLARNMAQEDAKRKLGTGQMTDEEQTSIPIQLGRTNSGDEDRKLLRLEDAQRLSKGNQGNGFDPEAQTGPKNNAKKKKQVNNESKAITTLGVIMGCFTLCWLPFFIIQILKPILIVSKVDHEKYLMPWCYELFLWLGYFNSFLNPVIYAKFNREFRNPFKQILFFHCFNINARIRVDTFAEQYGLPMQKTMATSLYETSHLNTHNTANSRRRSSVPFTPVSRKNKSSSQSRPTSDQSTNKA

[2] = biological target: T1, S7.1R (Dj-S7.1R); format: cell-based

SMILES | EC50 [1] | IC50 [2]
NCCc1c[nH]c2ccc(O)cc12 [5-HT] | 0.082 ± 0.005 µM | 
CC(C)C[C@H]1C(=O)N2CCC[C@H]2[C@]2(O)O[C@](NC(=O)[C@@H]3C=C4c5cccc6[nH]c(Br)c(c56)C[C@H]4N(C)C3)(C(C)C)C(=O)N12 [bromocriptine] |  | 1.8 ± 0.5 µM
